The melting point is the temperature of the solid-liquid transition.

Structures are written as SMILES.

As to `Cc1ccc(C(SCCN(C)CCCCN=C(NC#N)NCCSCc2csc(NC(=N)N)n2)c2ccccc2)cc1` (configuration not stated), the melting point was 134 to 140 °C.
For the compound `COCCn1cc(C(=O)O)c2c(Cl)cccc21`, the melting point was in the range of 142 to 145 °C.
To `CCOc1nn(Cc2ccc(OCc3nc(-c4ccccc4)oc3C)cc2)cc1CC(=O)O` belongs 125 to 126 °C; to `CCOC(=O)C1=C(C)NN=C(CC)C1c1ccccc1C(F)(F)F` (configuration not stated), 124 °C; to `Nc1ccc(C(=O)N2CCOCC2)cc1OCc1ccc(-c2ccccc2-c2nnnn2C(c2ccccc2)(c2ccccc2)c2ccccc2)cc1`, 95 to 105 °C.
Then `COC(=O)c1ccc(C#CC2(O)CN3CCC2CC3)nc1` (configuration not stated), with 180 to 182 °C.
For the compound `CNc1nc(-c2cccc(NC(=O)c3ccccn3)c2)c2cc(OC)c(OC)cc2n1`, the melting point was in the range of 175 to 177 °C.
To `O=C1OC2(CCc3ccccc32)c2ccccc21` (configuration not stated) belongs 138 to 139 °C.
The compound `CNC(=S)NS(=O)(=O)c1cc(CCNC(=O)c2cc(Cl)ccc2OC)ccc1-c1cccs1` had a melting point of 189 to 191 °C.
Then `CN(C)CCc1[nH]c2ccccc2c1CSc1nccn1C`, with 152 to 154 °C; and `COc1ccc(Nc2nc(Nc3cc4c(cc3OC)CCN(CC(=O)N(C)C)CC4)ncc2Cl)c(OC)n1`, with 67 to 76 °C.
Consider `CCOC(=O)c1cnn2c1nc(NC(C)CC)c1cnc3c(cnn3CC)c12` (configuration not stated), for which the melting point was 94 to 97 °C.
Then `O=C1Nc2cccnc2N(C(=O)CCN2CCN(Cc3ccccc3)CC2)c2ccccc21`, with 205 to 207 °C; and `CS(=O)(=O)c1ccc(-c2oc3ccccc3c(=S)c2-c2ccc(F)cc2)cc1`, with 203 to 205 °C; and `O=C(c1ccc([N+](=O)[O-])cc1)N1CCCc2ccccc21`, with 86 to 88 °C.
With `CCNc1nc(CC)c(-c2ccncc2)s1`, the melting point lay within 126 to 128 °C.
To `O=C(O)c1ccc(-c2cnc3c(O)ncnc3n2)cc1` belongs over 300 °C.
`CC(C)c1ccc(CN2CCC(NC(=O)NC(=O)c3ccccc3)CC2)cc1` returned a melting point of 240 to 242 °C.
To `CC(C)C1=CC(=O)C2=C(CCC3C(C)(C(=O)O)CCCC23C)C1=O` (configuration not stated) belongs 207 to 209 °C; to `CCS(=O)(=O)c1cc(C(=O)NCC2CCCN2CCC2CC2)c(OC)cc1N` (configuration not stated), 209 °C.
Then `CCCCCCCCCCCCc1c[nH]c2cc(C(=O)OC)ccc12`, with 85 to 89 °C; and `CC(=O)SCC(CC(C)C)C(=O)NCC(=O)O` (configuration not stated), with 120 to 121 °C; and `CC(=O)OC1CSC(Oc2ccc(-c3cccnc3F)nc2Cl)C(OC(C)=O)C1OC(C)=O` (configuration not stated), with 227 °C.
The compound `CCOC(=O)COC(=O)c1cc(S(N)(=O)=O)c(Cl)cc1NCc1ccco1` showed a melting point of 46 °C.
The compound `C=C1COc2ccc(C(C)=O)cc2C(Cc2ccccc2)(S(=O)(=O)c2ccccc2)C1` (configuration not stated) came in with a melting point of 131 to 132 °C.
Then `COc1cc(C=CC=C2OC(=O)NC2=O)ccc1OCc1coc(-c2ccccc2)n1`, with 227 to 228 °C; and `CN(C)C1CCN(c2cc3c(Cl)cccc3c(=O)[nH]2)CC1`, with 210 to 211 °C; and `COc1cc2cnc3c(c2cc1OC)Cc1c-3cc2c(c1CN(C)C)OCO2`, with 205 to 207 °C.
For the compound `O=C1CC(Cc2cccc(Cl)c2)CN1` (configuration not stated), the melting point lay in the range of 117 to 119 °C.
Compound `O=C(NC(c1ccccc1)C(O)C(=O)OCc1ccccc1)c1ccccc1` (configuration not stated) came in with a melting point of 129 to 131 °C.
To `COc1cc2c(Nc3ccc(C)c(OC(C)=O)c3)ncnc2cc1OCc1ccsc1` belongs 201 to 203 °C; to `COc1c(C)c(N2CCN(c3ccc(F)cc3)CC2)c(C)c2c1OC(C)C2` (configuration not stated), 114 to 116 °C.
For the compound `CCOC(=O)c1cncc(OC)c1CCCO`, the melting point was 85 to 89 °C.
With `O=C1Nc2cc3c(cc2O[C@H]1CCCO)CCCC3`, the melting point fell in the range of 139 to 140 °C.
To `CCCc1ccc(-c2cc(NC(=O)C3Cc4ccccc4C3)n[nH]2)cc1` belongs 211 to 213 °C; to `O=C(Nc1ccccc1)c1cccc([N+](=O)[O-])c1`, 153 to 154 °C.
Then `CC(C)(C)OC(=O)N1CCC(Nc2cccc(NC(=O)c3ccc(F)cc3Cl)n2)CC1`, with 82 °C; and `CN1CCC2(c3ccccc3)OC2C1` (configuration not stated), with 44 to 45 °C.
On to `Cc1oc(-c2ccc3ccccc3c2)nc1COc1ccc(CCCC2OCCO2)cc1`, for which the melting point lay within 141 to 142 °C.
To `CC(=O)OC(C(Oc1ccccc1)n1ccnc1)C(C)(C)C` (configuration not stated) belongs 114 to 121 °C.
For the compound `O=C(c1nc(-c2ccccc2)nc2ccccc12)N1CCCCCC1`, the melting point came out at 140 °C.
Then `Fc1ccc(C(c2ccc(F)cc2)C2CCN(CCCOc3c(Cl)cccc3Cl)CC2)cc1`, with 102 to 103 °C; and `Cc1[nH]cc2c(=O)n(-c3ccc(Cl)cc3)nc-2c1-c1cccc(NCc2cccnc2)c1`, with 284 to 287 °C.
Then `CN(C)CC(=O)NCc1nc(C(=O)N(C)C)nn1-c1ccc(Cl)cc1C(=O)c1ccccc1Cl`, with 122 to 124 °C; and `CC(=O)NCc1ccc2c(C#N)cn(C3CCN(CCc4ccc(F)cc4)CC3)c2c1`, with 130 to 131 °C; and `Cn1c(=O)[nH]c(N)c(NCc2ccccc2)c1=O`, with 206 to 218 °C.
Then `O=C(Cn1ccnc1)c1ccccc1`, with 121 to 122 °C; and `CCCCN1C(=O)C2C(=O)N(Cc3cc(C)ccc3C)C(=O)C(C1=O)C2(C)C`, with 159 to 161 °C; and `C=CC(CC(O)C(CC1CCCCC1)NC(=O)C(Cc1ncc[nH]1)NC(=O)C(Cc1ccccc1)NC(=O)C(N)COC(C)(C)C)C(C)C` (configuration not stated), with 103 °C.
`CCCc1ccc(CCCOc2c(C)cc(-c3nnn(C)n3)cc2C)nn1` showed a melting point of 78 to 80 °C.
Then `Cc1cccc2nc3n(c12)CC(c1ccccn1)S3` (configuration not stated), with 128 to 130 °C; and `CCOC(=O)c1nc(-c2cccc3ccccc23)no1`, with 68 to 70 °C; and `CCC1=NNC(C)=C(C(=O)OC(C)(C)C)C1c1cccc([N+](=O)[O-])c1` (configuration not stated), with 122 °C.
In turn, `CC12CCC1(C)C(=O)OC2=O` (configuration not stated) returned a melting point of 84 to 86 °C.
In the case of `CCc1noc(-c2ncc3[nH]c4ccc(C5CC=CCC5)cc4c3c2C)n1` (configuration not stated), the melting point lay within 247 to 248 °C.
Turning to `O=C(O)C(=O)c1ccsc1`, the melting point is 63 °C.
To `Cc1c(N2CC[C@@H](C3(N)CC3)C2)ccc2c(=O)c(C(=O)O)cn(C3CC3)c12` belongs 230 to 233 °C.
Regarding `O=CNc1ccc2c(c1)C(=O)CCC2`, the melting point was 137 to 138 °C.
`CCCCCCc1cccc(N2CC(=O)NC(=O)N2)c1` returned a melting point of 95 to 99 °C.
To `NC(=O)c1cc2cc(F)c(F)cc2o1` belongs 217 °C; to `C=CCOc1ccccc1C1C=NNC(=O)C1` (configuration not stated), 93 to 95 °C.
To `CCOC(=O)c1nc2n(n1)-c1ccc([N+](=O)[O-])cc1C(c1ccccc1F)=NC2` belongs 165 to 167 °C; to `Cn1ccc2c1CCn1ccnc1C2=C1CCN(CCNc2ncccn2)CC1`, 202 °C.
`Cc1nccc2c3ccc(OCCC(C)C)cc3n(CCC(C)C)c12` came in with a melting point of 106 °C.
For `Cc1[nH]c(C(=O)NCC2CCCCC2)c(C)c1-c1nc2ccc(C(=O)c3ccccc3)cc2[nH]1`, the melting point was in the range of 254 to 255 °C.
To `COC(=O)c1cc(-c2ccc3c(c2)CCO3)n[nH]c1=O` belongs 192 to 200 °C; to `CCC(CC)c1ccc(-c2ccco2)c2nc(Oc3ccc(Cl)cc3Br)n(C)c12`, 159 to 162 °C.
Then `CCNC(=O)C(=O)[C@H](Cc1ccccc1)NC(=O)[C@H](CC(C)C)NC(=O)O[C@H]1CCOC1`, with 159 to 161 °C.
To `CC1(C)CC(=O)c2c(O)ccc(Br)c2C1` belongs 65 to 67 °C; to `O=C(O)c1ccc(CNS(=O)(=O)c2ccccc2)cc1`, 223 to 227 °C; to `CC(=O)Oc1ccc(C=CC(=O)O)cc1C=O`, 205 to 207 °C.
The compound `CCOC(=O)Cc1ccc(SCc2ccc(NC(C)=O)cc2C(=O)O)cc1` showed a melting point of 170 °C.
To `Cn1cncc1C(N)(c1ccc(Cl)cc1)c1ccc2c(c1)C(c1cccc(Cl)c1)=NCc1nnnn1-2` (configuration not stated) belongs 218 °C; to `CC(=O)N1CC(=O)NC(=O)N1Cc1ccc(Cl)cc1`, 97 °C.
Then `CCOC(=O)CCc1ccc(C(C)(C)C)c(NC(=O)CC2c3ccccc3Oc3ccccc32)c1`, with 160 to 162 °C.
Then `CC12CCC3c4ccc(C(=O)O)cc4CCC3C1CCC2C(=O)c1ccc(C(F)(F)F)cc1` (configuration not stated), with 300 to 303 °C; and `CCCCCCCCCCCCNC(=S)C1(c2ccccn2)CCCS1` (configuration not stated), with 60 °C.
The compound `COC(=O)c1c(Cc2ccc(C(=O)CBr)cc2)c(=O)c2ccc(C)nc2n1-c1ccccc1` gave a melting point of 189 to 191 °C.
Then `CC(C(=O)O)c1ccc(-c2ccc(O)cc2)cc1` (configuration not stated), with 205 to 206 °C.
As to `COc1cc(CCCC2SC(=O)NC2=O)ccc1OCc1coc(-c2ccccc2)n1` (configuration not stated), the melting point was in the range of 131 to 132 °C.
To `CC(C)(C)OC(=O)Nc1ccc(NC(=O)CCCCC2CCSS2)cc1` (configuration not stated) belongs 190 to 195 °C; to `COc1c(C)cc2c(c1C)C[C@@H]1c3ccccc3N[C@H]21` (relative stereo), 117 °C; to `COc1ccc(C#Cc2ccc(C=O)cc2)cc1`, 106 °C.
The compound `COc1ccc2c(c1)c(-c1ccccc1)cc(=O)n2Cc1c(Cl)cncc1Cl` had a melting point of 191 to 192 °C.
In turn, `COCOc1cc(Cl)ccc1-c1cc(-c2cccc(C(=O)NCC3CCCCN3C(=O)OC(C)(C)C)c2)c(C#N)c(NC(=O)c2ccco2)n1` (configuration not stated) gave a melting point of 133 to 136 °C.
In the case of `Cn1c(=Nc2cccnc2)sc2ncccc2c1=O`, the melting point was found to be 160 °C.
To `CSCC(=O)[C@H](Cc1ccc(O)cc1)NC(=O)[C@H](CC(C)C)NC(=O)OCc1ccccc1` belongs 108 to 111 °C.

Values taken from a melting point compilation (Tetko et al.; mined from patent text by program, amines drawn as free bases though some values may be those of a salt).
